Laboratory results taken from patent US6740642B2, “Macrolides with antibacterial activity” (BAsilea Parmaceutica AG, priority 2000, dated 2004).
Converted amounts (≈) assume the structure as drawn.

Columns and labels:
St. pneumoniae SL199T = experiment: MIC, standard microdilution; format: cell-based, Streptococcus pneumoniae; conditions: Streptococcus pneumoniae, read-out: minimum inhibitory concentration (MIC)
Excerpt: (§1) The antibacterial activities of the compounds have been determined by standard microdilution technique (National Committee for Clinical Laboratory Standards. 1997. Methods for dilution antimicrobial susceptibility tests for bacteria that grow aerobically, 4th edition. Approved standard M7-A4. National Committee for Clinical Laboratory Standards, Wayne, Pa.).

St. pneumoniae 1/4 = experiment: MIC, standard microdilution; format: cell-based, Streptococcus pneumoniae; conditions: Streptococcus pneumoniae, read-out: minimum inhibitory concentration (MIC)
Excerpt: as §1

St. pneumoniae 1/1 = experiment: MIC, standard microdilution; format: cell-based, Streptococcus pneumoniae; conditions: Streptococcus pneumoniae, read-out: minimum inhibitory concentration (MIC)
Excerpt: as §1

St. pneumoniae 12288 = experiment: MIC, standard microdilution; format: cell-based, Streptococcus pneumoniae; conditions: Streptococcus pneumoniae, read-out: minimum inhibitory concentration (MIC)
Excerpt: as §1

E. coli ATCC25922 = experiment: MIC, standard microdilution; format: cell-based; conditions: Escherichia coli, read-out: minimum inhibitory concentration (MIC)
Excerpt: as §1

[1] = test system: P. aeruginosa ATCC27853 (+Ery. 32 μg/ml); experiment: MIC, standard microdilution; format: cell-based
Excerpt: as §1

S. aureus 1086 = experiment: MIC, standard microdilution; format: cell-based, Staphylococcus aureus; conditions: Staphylococcus aureus, read-out: minimum inhibitory concentration (MIC)
Excerpt: as §1

S. aureus ATCC29213 = experiment: MIC, standard microdilution; format: cell-based, Staphylococcus aureus; conditions: Staphylococcus aureus, read-out: minimum inhibitory concentration (MIC)
Excerpt: as §1

S. aureus 745 = experiment: MIC, standard microdilution; format: cell-based, Staphylococcus aureus; conditions: Staphylococcus aureus, read-out: minimum inhibitory concentration (MIC)
Excerpt: as §1

H. influenzae QK 12/87 = experiment: MIC, agar dilution, HTM medium; format: cell-based, Haemophilus influenzae; conditions: Haemophilus influenzae, QK12/87, read-out: MIC
Excerpt: as §1, with “biological” for “antibacterial”, “of compounds of” for “of”, “present invention against Haemophilus influenzae” for “compounds”, “agar dilution method using HTM medium” for “microdilution technique”

H. influenzae 3201 = experiment: MIC, agar dilution, HTM medium; format: cell-based, Haemophilus influenzae; conditions: Haemophilus influenzae, read-out: MIC
Excerpt: as §1, with “biological” for “antibacterial”, “of compounds of” for “of”, “present invention against Haemophilus influenzae” for “compounds”, “agar dilution method using HTM medium” for “microdilution technique”

H. influenzae ATCC 9334 = experiment: MIC, agar dilution, HTM medium; format: cell-based, Haemophilus influenzae; conditions: Haemophilus influenzae, ATCC9334, read-out: MIC
Excerpt: as §1, with “biological” for “antibacterial”, “of compounds of” for “of”, “present invention against Haemophilus influenzae” for “compounds”, “agar dilution method using HTM medium” for “microdilution technique”

H. influenzae H13 LAH = experiment: MIC, agar dilution, HTM medium; format: cell-based, Haemophilus influenzae; conditions: Haemophilus influenzae, H13LAH, read-out: MIC
Excerpt: as §1, with “biological” for “antibacterial”, “of compounds of” for “of”, “present invention against Haemophilus influenzae” for “compounds”, “agar dilution method using HTM medium” for “microdilution technique”

H. influenzae ATCC 49247 = experiment: MIC, agar dilution, HTM medium; format: cell-based, Haemophilus influenzae; conditions: Haemophilus influenzae, ATCC49247, read-out: MIC
Excerpt: as §1, with “biological” for “antibacterial”, “of compounds of” for “of”, “present invention against Haemophilus influenzae” for “compounds”, “agar dilution method using HTM medium” for “microdilution technique”

H. influenzae 3457 = experiment: MIC, agar dilution, HTM medium; format: cell-based, Haemophilus influenzae; conditions: Haemophilus influenzae, read-out: MIC
Excerpt: as §1, with “biological” for “antibacterial”, “of compounds of” for “of”, “present invention against Haemophilus influenzae” for “compounds”, “agar dilution method using HTM medium” for “microdilution technique”

H. influenzae 2947 = experiment: MIC, agar dilution, HTM medium; format: cell-based, Haemophilus influenzae; conditions: Haemophilus influenzae, read-out: MIC
Excerpt: as §1, with “biological” for “antibacterial”, “of compounds of” for “of”, “present invention against Haemophilus influenzae” for “compounds”, “agar dilution method using HTM medium” for “microdilution technique”

H. influenzae 1 = experiment: MIC, agar dilution, HTM medium; format: cell-based, Haemophilus influenzae; conditions: Haemophilus influenzae, read-out: MIC
Excerpt: as §1, with “biological” for “antibacterial”, “of compounds of” for “of”, “present invention against Haemophilus influenzae” for “compounds”, “agar dilution method using HTM medium” for “microdilution technique”

H. influenzae H28 HEL = experiment: MIC, agar dilution, HTM medium; format: cell-based, Haemophilus influenzae; conditions: Haemophilus influenzae, H28HEL, read-out: MIC
Excerpt: as §1, with “biological” for “antibacterial”, “of compounds of” for “of”, “present invention against Haemophilus influenzae” for “compounds”, “agar dilution method using HTM medium” for “microdilution technique”

H. influenzae 23145 = experiment: MIC, agar dilution, HTM medium; format: cell-based, Haemophilus influenzae; conditions: Haemophilus influenzae, read-out: MIC
Excerpt: as §1, with “biological” for “antibacterial”, “of compounds of” for “of”, “present invention against Haemophilus influenzae” for “compounds”, “agar dilution method using HTM medium” for “microdilution technique”

H. influenzae B 1501 = experiment: MIC, agar dilution, HTM medium; format: cell-based, Haemophilus influenzae; conditions: Haemophilus influenzae, B1501, read-out: MIC
Excerpt: as §1, with “biological” for “antibacterial”, “of compounds of” for “of”, “present invention against Haemophilus influenzae” for “compounds”, “agar dilution method using HTM medium” for “microdilution technique”

H. influenzae QK 50 = experiment: MIC, agar dilution, HTM medium; format: cell-based, Haemophilus influenzae; conditions: Haemophilus influenzae, QK50, read-out: MIC
Excerpt: as §1, with “biological” for “antibacterial”, “of compounds of” for “of”, “present invention against Haemophilus influenzae” for “compounds”, “agar dilution method using HTM medium” for “microdilution technique”

H. influenzae 11 = experiment: MIC, agar dilution, HTM medium; format: cell-based, Haemophilus influenzae; conditions: Haemophilus influenzae, read-out: MIC
Excerpt: as §1, with “biological” for “antibacterial”, “of compounds of” for “of”, “present invention against Haemophilus influenzae” for “compounds”, “agar dilution method using HTM medium” for “microdilution technique”

H. influenzae Christy = experiment: MIC, agar dilution, HTM medium; format: cell-based, Haemophilus influenzae; conditions: Haemophilus influenzae, read-out: MIC
Excerpt: as §1, with “biological” for “antibacterial”, “of compounds of” for “of”, “present invention against Haemophilus influenzae” for “compounds”, “agar dilution method using HTM medium” for “microdilution technique”

H. influenzae 12214 = experiment: MIC, agar dilution, HTM medium; format: cell-based, Haemophilus influenzae; conditions: Haemophilus influenzae, read-out: MIC
Excerpt: as §1, with “biological” for “antibacterial”, “of compounds of” for “of”, “present invention against Haemophilus influenzae” for “compounds”, “agar dilution method using HTM medium” for “microdilution technique”

H. influenzae Rd KW20 = experiment: MIC, agar dilution, HTM medium; format: cell-based, Haemophilus influenzae; conditions: Haemophilus influenzae, RDKW20, read-out: MIC
Excerpt: as §1, with “biological” for “antibacterial”, “of compounds of” for “of”, “present invention against Haemophilus influenzae” for “compounds”, “agar dilution method using HTM medium” for “microdilution technique”

H. influenzae H36 ODL = experiment: MIC, agar dilution, HTM medium; format: cell-based, Haemophilus influenzae; conditions: Haemophilus influenzae, H36ODL, read-out: MIC
Excerpt: as §1, with “biological” for “antibacterial”, “of compounds of” for “of”, “present invention against Haemophilus influenzae” for “compounds”, “agar dilution method using HTM medium” for “microdilution technique”

H. influenzae 4139 = experiment: MIC, agar dilution, HTM medium; format: cell-based, Haemophilus influenzae; conditions: Haemophilus influenzae, read-out: MIC
Excerpt: as §1, with “biological” for “antibacterial”, “of compounds of” for “of”, “present invention against Haemophilus influenzae” for “compounds”, “agar dilution method using HTM medium” for “microdilution technique”

H. influenzae 23369 = experiment: MIC, agar dilution, HTM medium; format: cell-based, Haemophilus influenzae; conditions: Haemophilus influenzae, read-out: MIC
Excerpt: as §1, with “biological” for “antibacterial”, “of compounds of” for “of”, “present invention against Haemophilus influenzae” for “compounds”, “agar dilution method using HTM medium” for “microdilution technique”

H. influenzae 3640 = experiment: MIC, agar dilution, HTM medium; format: cell-based, Haemophilus influenzae; conditions: Haemophilus influenzae, read-out: MIC
Excerpt: as §1, with “biological” for “antibacterial”, “of compounds of” for “of”, “present invention against Haemophilus influenzae” for “compounds”, “agar dilution method using HTM medium” for “microdilution technique”

H. influenzae H20 HDL = experiment: MIC, agar dilution, HTM medium; format: cell-based, Haemophilus influenzae; conditions: Haemophilus influenzae, H20HDL, read-out: MIC
Excerpt: as §1, with “biological” for “antibacterial”, “of compounds of” for “of”, “present invention against Haemophilus influenzae” for “compounds”, “agar dilution method using HTM medium” for “microdilution technique”

MIC (H. influenzae QK 12/87)	MIC (H. influenzae 3201)	MIC (H. influenzae ATCC 9334)	MIC (H. influenzae H13 LAH)	MIC (H. influenzae ATCC 49247)	MIC (H. influenzae 3457)	MIC (H. influenzae 2947)	MIC (H. influenzae 1)	MIC (H. influenzae H28 HEL)	MIC (H. influenzae 23145)	MIC (H. influenzae B 1501)	MIC (H. influenzae QK 50)	MIC (H. influenzae 11)	MIC (H. influenzae Christy)	MIC (H. influenzae 12214)	MIC (H. influenzae Rd KW20)	MIC (H. influenzae H36 ODL)	MIC (H. influenzae 4139)	MIC (H. influenzae 23369)	MIC (H. influenzae 3640)	SMILES	other results
1 µg/mL (≈ 1.23 µM)	4 µg/mL (≈ 4.93 µM)	2 µg/mL (≈ 2.46 µM)	2 µg/mL (≈ 2.46 µM)	4 µg/mL (≈ 4.93 µM)	0.25 µg/mL (≈ 0.308 µM)	4 µg/mL (≈ 4.93 µM)	4 µg/mL (≈ 4.93 µM)	2 µg/mL (≈ 2.46 µM)	4 µg/mL (≈ 4.93 µM)	2 µg/mL (≈ 2.46 µM)	2 µg/mL (≈ 2.46 µM)	4 µg/mL (≈ 4.93 µM)	4 µg/mL (≈ 4.93 µM)	4 µg/mL (≈ 4.93 µM)	4 µg/mL (≈ 4.93 µM)	4 µg/mL (≈ 4.93 µM)	2 µg/mL (≈ 2.46 µM)	4 µg/mL (≈ 4.93 µM)	2 µg/mL (≈ 2.46 µM)	CC[C@H]1OC(=O)[C@H](C)C(=O)[C@H](C)[C@@H](O[C@@H]2O[C@H](C)C[C@H](N(C)C)[C@H]2O)[C@](C)(OC)C[C@@H](C)C(=O)[C@H](C)[C@H]2N(CCCCn3cnc(-c4cccnc4)c3)C(=O)O[C@]12C [Telithromycin (4), telithromycin]	MIC (St. pneumoniae SL199T): ≤ 0.12 µg/mL; MIC (St. pneumoniae 1/4): ≤ 0.12 µg/mL; MIC (St. pneumoniae 1/1): ≤ 0.12 µg/mL; MIC (St. pneumoniae 12288): 0.25 µg/mL (≈ 0.308 µM); MIC (E. coli ATCC25922): 16 µg/mL (≈ 19.7 µM); minimum inhibitory concentration (MIC) [1]: >16 µg/mL; MIC (S. aureus 1086): ≤ 0.12 µg/mL; MIC (S. aureus ATCC29213): ≤ 0.12 µg/mL; MIC (S. aureus 745): > 64 µg/mL; MIC (H. influenzae H20 HDL): 2 µg/mL (≈ 2.46 µM)
2 µg/mL (≈ 2.67 µM)	16 µg/mL (≈ 21.4 µM)	8 µg/mL (≈ 10.7 µM)	8 µg/mL (≈ 10.7 µM)	8 µg/mL (≈ 10.7 µM)	1 µg/mL (≈ 1.34 µM)	16 µg/mL (≈ 21.4 µM)	8 µg/mL (≈ 10.7 µM)	4 µg/mL (≈ 5.35 µM)	8 µg/mL (≈ 10.7 µM)	8 µg/mL (≈ 10.7 µM)	8 µg/mL (≈ 10.7 µM)	16 µg/mL (≈ 21.4 µM)	8 µg/mL (≈ 10.7 µM)	8 µg/mL (≈ 10.7 µM)	8 µg/mL (≈ 10.7 µM)	16 µg/mL (≈ 21.4 µM)	4 µg/mL (≈ 5.35 µM)	16 µg/mL (≈ 21.4 µM)	4 µg/mL (≈ 5.35 µM)	CC[C@H]1OC(=O)[C@H](C)[C@@H](O[C@H]2C[C@@](C)(OC)[C@@H](O)[C@H](C)O2)[C@H](C)[C@@H](O[C@@H]2O[C@H](C)C[C@H](N(C)C)[C@H]2O)[C@](C)(OC)C[C@@H](C)C(=O)[C@H](C)[C@@H](O)[C@]1(C)O [Clarithromycin (2), clarithromycin]	MIC (St. pneumoniae SL199T): 16 µg/mL (≈ 21.4 µM); MIC (St. pneumoniae 1/4): 16 µg/mL (≈ 21.4 µM); MIC (St. pneumoniae 1/1): ≤ 0.12 µg/mL; MIC (St. pneumoniae 12288): > 16 µg/mL; MIC (E. coli ATCC25922): > 16 µg/mL; minimum inhibitory concentration (MIC) [1]: >16 µg/mL; MIC (S. aureus 1086): 16 µg/mL (≈ 21.4 µM); MIC (S. aureus ATCC29213): 0.25 µg/mL (≈ 0.334 µM); MIC (S. aureus 745): > 16 µg/mL; MIC (H. influenzae H20 HDL): 4 µg/mL (≈ 5.35 µM)
0.5 µg/mL (≈ 0.668 µM)	2 µg/mL (≈ 2.67 µM)	2 µg/mL (≈ 2.67 µM)	2 µg/mL (≈ 2.67 µM)	2 µg/mL (≈ 2.67 µM)	0.5 µg/mL (≈ 0.668 µM)	2 µg/mL (≈ 2.67 µM)	2 µg/mL (≈ 2.67 µM)	1 µg/mL (≈ 1.34 µM)	2 µg/mL (≈ 2.67 µM)	1 µg/mL (≈ 1.34 µM)	2 µg/mL (≈ 2.67 µM)	2 µg/mL (≈ 2.67 µM)	2 µg/mL (≈ 2.67 µM)	2 µg/mL (≈ 2.67 µM)	2 µg/mL (≈ 2.67 µM)	2 µg/mL (≈ 2.67 µM)	0.5 µg/mL (≈ 0.668 µM)	4 µg/mL (≈ 5.34 µM)	1 µg/mL (≈ 1.34 µM)	CC[C@H]1OC(=O)[C@H](C)[C@@H](O[C@H]2C[C@@](C)(OC)[C@@H](O)C(C)O2)[C@H](C)[C@@H](O[C@@H]2OC(C)C[C@H](N(C)C)[C@H]2O)[C@](C)(O)C[C@@H](C)CN(C)C(C)C(O)[C@]1(C)O (stereo partly drawn) [Azithromycin (3), azithromycin]	MIC (H. influenzae H20 HDL): 1 µg/mL (≈ 1.34 µM)
